In patent US20220213060A1, “Crystal Form of Quinazolinone Compound and Preparation Method Therefor” (Luoxin Healthcare Science and Technology Development …, priority 2019, published 2022):

Experiments:
PI3Kγ = target: T1, PI3Kγ (Homo sapiens, UniProt P48736); test: In vitro enzymatic activity test (ADP-Glo lipid kinase), PI3Kγ; format: biochemical; conditions: inhibitory activity against PI3Kα relative to PI3Kγ
T1 construct: purchased Millipore 14-558-K
Protocol: (§1) The lipid kinase reaction was carried out in a suitable substrate and under ATP conditions, then the activity of the kinase was detected by ADP-Glo™ kit in two steps. Step 1: the kinase reaction was terminated, in which the residual ATP was completely removed and only ADP was retained; step 2: kinase detection reagent was added to convert ADP to ATP, accompanied by fluorescein/luciferase reaction. Finally, the fluorescence value output was converted into kinase activity.
(§2) Experimental Materials and Equipment:
(§3) 2) Kit: ADP-Glo™ lipid kinase and PIP2:3PS kit (Promega #V1792)
(§4) The reagent kit contains: 1 mM PIP2:3PS, 10× lipid dilution buffer, 1 M magnesium chloride, 10 mM ATP, 10 mM ADP, ADP-Glo reagent, detection buffer and detection substrate.
(§5) 3) Reaction plate: OptiPlate-384, white and transparent (PerkinElmer #6007299)
(§6) 1) 10× reaction buffer: 500 mM HEPES, pH 7.5, 500 mM NaCl, […]; BSA: 10% stock solution, self-made
(§7) 2) Final test system conditions: 1× reaction system: 50 mM of HEPES, 50 mM of NaCl, 3 mM of MgCl2, 0.01% BSA (freshly prepared on the day of experiment), 1% DMSO (v/v)+/−compound
(§8) 3) Reaction system: 3 μL of mixture of enzyme and substrate (1:1)+2 μL of ATP/MgCl2 mixture+5 μL of ADP-Glo reagent+10 μL of detection reagent.
(§9) The specific experimental operations were as follows: […]
(§10) (16) Fluorescence values were measured on the Envision instrument.

PI3Kα = target: T2, PI3Kα (Homo sapiens, UniProt P42336); test: In vitro enzymatic activity test (ADP-Glo lipid kinase), PI3Kα wild type; format: biochemical; conditions: wild-type PI3Kα kinase; read-out: Wild type PI3Kα IC50
T2 construct: purchased Millipore 14-602-K
T2 sequence (P42336 whole entry): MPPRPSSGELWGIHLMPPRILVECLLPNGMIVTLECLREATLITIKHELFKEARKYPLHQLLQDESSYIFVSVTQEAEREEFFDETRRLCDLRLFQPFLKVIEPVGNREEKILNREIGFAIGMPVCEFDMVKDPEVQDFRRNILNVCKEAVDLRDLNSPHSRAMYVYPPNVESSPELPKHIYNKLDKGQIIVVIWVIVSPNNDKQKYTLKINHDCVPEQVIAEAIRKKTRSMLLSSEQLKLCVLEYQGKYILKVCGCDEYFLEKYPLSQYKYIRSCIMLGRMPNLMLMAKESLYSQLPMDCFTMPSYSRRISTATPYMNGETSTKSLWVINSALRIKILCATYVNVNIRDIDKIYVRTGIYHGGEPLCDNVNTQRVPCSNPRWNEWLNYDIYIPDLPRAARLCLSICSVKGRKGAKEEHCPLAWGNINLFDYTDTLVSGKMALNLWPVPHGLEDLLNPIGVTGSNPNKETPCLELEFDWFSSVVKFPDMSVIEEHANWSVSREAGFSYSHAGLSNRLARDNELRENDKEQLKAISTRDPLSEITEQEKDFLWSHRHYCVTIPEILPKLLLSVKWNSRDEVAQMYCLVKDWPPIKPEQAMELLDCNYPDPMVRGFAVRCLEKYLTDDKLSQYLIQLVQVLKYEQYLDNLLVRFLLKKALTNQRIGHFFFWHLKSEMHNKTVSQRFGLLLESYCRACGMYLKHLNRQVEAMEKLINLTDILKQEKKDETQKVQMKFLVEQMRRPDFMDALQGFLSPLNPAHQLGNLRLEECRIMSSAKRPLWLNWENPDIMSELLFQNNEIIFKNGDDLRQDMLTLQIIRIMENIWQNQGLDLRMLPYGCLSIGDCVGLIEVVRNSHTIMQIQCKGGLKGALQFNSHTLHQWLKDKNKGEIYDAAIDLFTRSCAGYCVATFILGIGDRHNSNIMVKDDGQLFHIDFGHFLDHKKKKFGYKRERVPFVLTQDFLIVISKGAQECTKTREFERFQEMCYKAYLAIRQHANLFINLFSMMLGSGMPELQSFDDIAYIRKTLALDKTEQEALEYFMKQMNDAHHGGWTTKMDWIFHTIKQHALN
T2 sequence (P27986 whole entry partner): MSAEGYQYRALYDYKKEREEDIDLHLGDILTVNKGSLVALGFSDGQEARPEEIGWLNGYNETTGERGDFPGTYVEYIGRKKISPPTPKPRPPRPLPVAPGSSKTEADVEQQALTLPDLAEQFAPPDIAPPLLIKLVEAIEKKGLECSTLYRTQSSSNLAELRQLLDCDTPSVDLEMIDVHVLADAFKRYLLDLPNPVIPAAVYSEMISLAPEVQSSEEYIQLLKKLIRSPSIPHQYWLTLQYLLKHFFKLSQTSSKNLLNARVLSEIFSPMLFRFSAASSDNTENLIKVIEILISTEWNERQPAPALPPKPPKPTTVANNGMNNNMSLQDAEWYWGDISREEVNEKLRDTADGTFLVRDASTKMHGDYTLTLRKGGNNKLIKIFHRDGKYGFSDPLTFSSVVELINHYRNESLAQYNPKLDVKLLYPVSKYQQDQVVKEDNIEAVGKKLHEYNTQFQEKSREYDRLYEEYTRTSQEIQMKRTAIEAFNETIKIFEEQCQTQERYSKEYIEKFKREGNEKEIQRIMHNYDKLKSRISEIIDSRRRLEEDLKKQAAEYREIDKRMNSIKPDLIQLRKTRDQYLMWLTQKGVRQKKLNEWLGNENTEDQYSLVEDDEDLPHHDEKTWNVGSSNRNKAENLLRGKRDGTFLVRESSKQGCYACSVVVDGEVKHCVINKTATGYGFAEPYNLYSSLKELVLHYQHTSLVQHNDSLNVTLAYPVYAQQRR
Protocol: as §1, §2, §3, §4, §5, §6, §7, §8, §9, §10

Jeko-1 = test: Akt phosphorylation inhibition in Jeko-1 cells (high expression of PI3Kδ); format: cell-based; conditions: Jeko-1 cell line with high expression of PI3Kδ
[1] = system: human ovarian cancer SKOV-3 (PIK3CA H1047R mutation); test: In vivo pharmacodynamic study, SKOV-3 nude mouse subcutaneous xenograft tumor model; design: species or system BALB/c nude mice; conditions: for T/C % / TGI %: oral once a day for 28 days
Protocol: Human SKOV-3 ovarian cancer cells with PIK3CA H1047R mutation. This experiment evaluated the efficacy of the crystal form A of the represented by formula (I) in a human ovarian cancer xenograft tumor model.
Cell culture: Human ovarian cancer SKOV-3 cells were cultured in vitro in a single layer, the culture condition was RPMI-1640 medium with 10% fetal bovine serum, and the cells were incubated in 5% CO2 at 37° C. Digestion and passage treatment with trypsin-EDTA was carried out twice a week. When the cell saturation was 80%-90% and the number reached the requirement, the cells were collected, counted and inoculated.
Animals: BALB/c nude mice, female, 6-8 weeks old, weighing 18-20 g. A total of 67 animals were required, and provided by Beijing Vital River Biotechnology Co., Ltd.
Tumor inoculation: 0.2 mL (10×10^6 cells) of SKOV-3 cells (with matrigel in a volume ratio of 1:1) were subcutaneously inoculated on the right back of each mouse, group administration was started when the average tumor volume reached 150 mm^3-200 mm^3.
Tumor-bearing mice in each administration group had good tolerance to the tested compounds.

Mutant PI3Kα (H1047R) = Mutant PI3Kα (H1047R) (Homo sapiens, UniProt P42336, H1047R); test: In vitro enzymatic activity test, mutant PI3Kα (H1047R); format: biochemical
Mutant PI3Kα (H1047R), sequence (P42336 whole entry H1047R): as the sequence (P42336 whole entry) above, with H1047R counted along it
Mutant PI3Kα (H1047R), sequence (P27986 whole entry partner): as the sequence (P27986 whole entry partner) above
From the text: The crystal form A of the compound represented by formula (I) has a strong inhibitory effect on both wild-type and mutant PI3Kα kinases. […] The crystal form A of the compound represented by formula (I) has excellent selectivity to the other three subtypes of PI3K, and its inhibitory activity against PI3Kα is 149/7.44/6.61 times higher than that of PI3Kβ/δ/γ, respectively. The specific experimental method was the same as experimental embodiment 8. […] The specific experimental method was the same as experimental embodiment 9.
as §1, §2, §3
The reagent kit contains: 1 mM PIP2:3PS, 10× lipid dilution buffer, 1 M magnesium chloride, 10 mM ATP, 10 mM ADP, ADP-Glo reagent, detection buffer and detection substrate. […]
as §10

[2] = Hygroscopicity by dynamic vapor sorption (DVS); format: physicochemical; conditions: 25° C. and 80% RH; listed as crystal form A of the compound represented by formula (I)
Protocol: 1.4 Dynamic Vapor Sorption (DVS) Method of the Present Disclosure
Instrument model: SMS DVS Advantage dynamic vapor sorption instrument
Detection conditions: 10-20 mg of sample was placed in a DVS sample tray for testing.
Detailed DVS parameters were as follows:
Equilibrium: dm/dt=0.01%/min: (shortest: 10 min, longest: 180 min)
Drying: drying at 0% RH for 120 min
RH (%) test gradient: 10%
RH (%) test gradient range: 0%-90%-0%
Hygroscopicity evaluation is classified as follows:
20 mg of the crystal form A of the compound represented by formula (I) was placed in the DVS sample tray for testing.

[3] = 10 mg/kg, listed as crystal form A of the compound represented by formula (I)
[4] = 20 mg/kg, listed as crystal form A of the compound represented by formula (I)
[5] = 40 mg/kg, listed as crystal form A of the compound represented by formula (I)

T1 sequence (P48736 whole entry): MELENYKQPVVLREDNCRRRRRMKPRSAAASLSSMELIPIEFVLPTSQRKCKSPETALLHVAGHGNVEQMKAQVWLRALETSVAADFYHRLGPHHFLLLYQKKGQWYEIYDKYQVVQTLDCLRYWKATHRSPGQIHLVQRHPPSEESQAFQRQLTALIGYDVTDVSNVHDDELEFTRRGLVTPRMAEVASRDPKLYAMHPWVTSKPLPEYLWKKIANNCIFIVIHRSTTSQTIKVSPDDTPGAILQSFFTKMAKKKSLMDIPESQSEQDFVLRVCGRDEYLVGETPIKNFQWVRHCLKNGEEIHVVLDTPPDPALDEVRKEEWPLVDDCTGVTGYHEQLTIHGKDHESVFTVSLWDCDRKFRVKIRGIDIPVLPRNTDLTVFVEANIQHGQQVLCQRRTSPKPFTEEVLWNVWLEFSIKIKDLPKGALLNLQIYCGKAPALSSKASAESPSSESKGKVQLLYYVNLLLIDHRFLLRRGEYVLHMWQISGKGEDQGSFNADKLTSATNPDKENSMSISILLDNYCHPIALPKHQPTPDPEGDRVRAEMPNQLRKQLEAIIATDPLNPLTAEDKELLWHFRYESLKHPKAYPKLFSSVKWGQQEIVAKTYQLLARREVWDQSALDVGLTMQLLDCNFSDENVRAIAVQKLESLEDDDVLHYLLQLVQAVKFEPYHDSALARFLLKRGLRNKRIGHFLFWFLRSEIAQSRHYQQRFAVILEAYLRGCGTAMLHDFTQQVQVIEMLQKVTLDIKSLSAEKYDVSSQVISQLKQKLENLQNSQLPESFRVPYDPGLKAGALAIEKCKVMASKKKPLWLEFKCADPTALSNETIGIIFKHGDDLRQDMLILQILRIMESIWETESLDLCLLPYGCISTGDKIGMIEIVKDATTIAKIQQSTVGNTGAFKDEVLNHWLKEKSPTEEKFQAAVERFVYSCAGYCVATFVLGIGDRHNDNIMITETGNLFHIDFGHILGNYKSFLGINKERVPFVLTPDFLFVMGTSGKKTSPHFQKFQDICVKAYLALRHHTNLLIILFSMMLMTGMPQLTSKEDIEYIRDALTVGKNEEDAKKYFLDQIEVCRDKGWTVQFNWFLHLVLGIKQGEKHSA

Selectivity PI3Kα/γ (kinase) (PI3Kγ): 6.61 times | IC50 (PI3Kα): 1.8 nM | IC50 (Mutant PI3Kα (H1047R)): 0.69 nM | Classification for hygroscopicity [2]: slightly hygroscopic (2% > ΔW% ≥ 0.2%) | ΔW, hygroscopical weight gain [2]: 0.885%
SMILES: CNC(=O)[C@H](C)Cn1cnc2ccc(-c3cnc(OC)c(NS(=O)(=O)c4ccc(F)cc4F)c3)cc2c1=O
Selectivity PI3Kα over PI3Kδ, Akt phosphorylation inhibitory activity in cells (Jeko-1): 23.0 times | Anti-tumor effect (in words) ([1]; 10 mg/kg): a certain anti-tumor effect | T/C % ([1]; 10 mg/kg): 69.17% | TGI % ([1]; 10 mg/kg): 30.45% | T/C % [1, 3]: 69.17% | TGI % [1, 3]: 30.45% | Anti-tumor effect (in words) ([1]; 20 mg/kg): a certain anti-tumor effect | T/C % ([1]; 20 mg/kg): 60.61% | TGI % ([1]; 20 mg/kg): 41.42% | T/C % [1, 4]: 60.61% | TGI % [1, 4]: 41.42% | Anti-tumor effect (in words) ([1]; 40 mg/kg group): significant anti-tumor effects | T/C % ([1]; 40 mg/kg): 37.79% | TGI % ([1]; 40 mg/kg): 69.16% | T/C % [1, 5]: 37.79% | TGI % [1, 5]: 69.16%
